Laboratory results from US12270016B1, “Structure and function of modular microfluidic device for in-vitro modeling of human organs” (Alfaisal University, priority 2024, dated 2025).

Legend:
[1] = system: differentiated adipocytes; test: Glucose uptake by the adipocytes (2-NBDG glucose uptake assay kit) in microfluidic device; type: cell-based, human
Experimental: (§1) Cell Culture: In vitro model of the human inflamed adipose tissue (adipocyte/immune cell coculture): Prior to seeding the cells into the microfluidic device, the fluidic compartments underwent a sterilization process by filling them with 70% ethanol for a minimum of 4 hours. Afterward, the microfluidic devices were washed with deionized water, and each microfluidic device was loaded with 100 μL of Poly-L-lysine solution (0.1 mg/mL in H2O) and incubated overnight at 37° C. The microfluidic devices were then washed again, first with sterilized deionized water and then with phosphate-buffered saline (PBS). Next, the microfluidic devices were primed with a preadipocyte growth medium from (Cell Applications). […] Cell viability and morphological changes were monitored using a microscope. […] The concentrations of Tumor Necrosis Factor (TNFα) and Interleukin-6 (IL-6) in the supernatants were measured using an ELISA method. […] The percentage of calcein-AM-labeled cells was used to quantify cell viability. The growth and morphology of the cells were regularly monitored under the microscope. […] To assess cell differentiation of the adipocytes, the lipid content within adipocytes was monitored by staining the lipid droplets with Oil Red O (Sigma-Aldrich, St. Louis, MO, USA). […]

[2] = system: Adipocytes and U937 cells; test: Cytokine immunoassay (ELISA) of supernatants from adipocyte/immune cell co-culture in VasChip3x2 microfluidic device; type: cell-based, human; settings: inflammation state induced with 100 ng/ml LPA
Experimental: as §1

With insulin the glucose uptake ([1]; adipocyte monoculture, after insulin treatment) was “significant glucose uptake”.

In the case of lysophosphatidic acid [LPA], the “cytokine secretion (TNF and IL-6 in the supernatants)” value [2] is reported as “significant increase” and the glucose uptake ([1]; adipocyte/U937 co-culture, inflammation state induced with 100 ng/ml LPA) is reported as “decrease”.
